According to ChEMBL document CHEMBL1770127, “2-(2-Aminothiazol-4-yl)pyrrolidine-based tartrate diamides as potent, selective and orally bioavailable TACE inhibitors” (Bioorg Med Chem Lett, 2011):

How the values were obtained:
[1] = target: T1, Disintegrin and metalloproteinase domain-containing protein 17 (Homo sapiens, UniProt P78536); assay: Inhibition of TACE
[2] = AUC in Sprague-Dawley rat at 10 mg/kg, po measured within 6 hrs after post-dosing by LC/MS/MS analysis; type: ADME, organism-based; design: time < 6 hr, dose 10 mg/kg, route oral; conditions: plasma
[3] = target: T1, Disintegrin and metalloproteinase domain-containing protein 17; assay: Inhibition of TACE by cell based assay

T1 sequence (P78536 whole entry, the tested form may be a part): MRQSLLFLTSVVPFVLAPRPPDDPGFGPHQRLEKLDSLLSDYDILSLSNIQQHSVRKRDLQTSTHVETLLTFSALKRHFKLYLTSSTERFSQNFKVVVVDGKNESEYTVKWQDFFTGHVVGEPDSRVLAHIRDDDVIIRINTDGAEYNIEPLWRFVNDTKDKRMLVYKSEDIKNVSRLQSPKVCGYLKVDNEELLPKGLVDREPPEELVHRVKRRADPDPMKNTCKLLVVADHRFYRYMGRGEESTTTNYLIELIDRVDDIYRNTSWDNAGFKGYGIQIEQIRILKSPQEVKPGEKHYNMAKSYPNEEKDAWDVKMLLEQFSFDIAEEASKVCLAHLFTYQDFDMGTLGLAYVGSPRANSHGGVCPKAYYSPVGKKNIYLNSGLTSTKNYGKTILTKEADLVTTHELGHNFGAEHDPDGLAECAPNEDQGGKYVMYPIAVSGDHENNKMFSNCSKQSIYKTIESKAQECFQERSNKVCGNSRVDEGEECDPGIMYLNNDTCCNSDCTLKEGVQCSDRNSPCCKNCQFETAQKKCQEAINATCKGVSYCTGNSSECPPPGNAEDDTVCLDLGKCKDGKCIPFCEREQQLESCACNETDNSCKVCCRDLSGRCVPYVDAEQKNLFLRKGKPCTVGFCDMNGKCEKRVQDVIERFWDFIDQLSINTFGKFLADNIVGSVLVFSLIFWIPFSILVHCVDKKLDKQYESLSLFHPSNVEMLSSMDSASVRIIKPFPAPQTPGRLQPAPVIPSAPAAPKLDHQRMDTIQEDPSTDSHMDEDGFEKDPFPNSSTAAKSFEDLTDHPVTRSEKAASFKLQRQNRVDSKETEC

CNc1nc([C@H]2C[C@H]3C[C@H]3N2C(=O)[C@H](O)[C@@H](O)C(=O)N[C@H](C)c2ccc(-n3cccn3)cc2)cs1
Ki [1]: 0.001 µM
AUC at 6 h [2]: 925 nM·h
IC50 [3]: 0.707 µM

COc1cc2c(cc1OC)[C@H](c1ccccc1)CN(C(=O)[C@H](O)[C@@H](O)C(=O)N[C@H](C)c1ccc(-n3cccn3)cc1)CC2
Ki [1]: 0.038 µM

Cc1nc([C@H]2CCCN2C(=O)[C@H](O)[C@@H](O)C(=O)N[C@H](C)c2ccc(-n3cccn3)cc2)cs1
Ki [1]: 0.01 µM

CNc1nc([C@H]2CCCN2C(=O)[C@H](O)[C@@H](O)C(=O)N[C@H](C)c2ccc(-n3cccn3)cc2)c(C)s1
Ki [1]: 0.002 µM
AUC at 6 h [2]: 5440 nM·h
IC50 [3]: 2.22 µM

C[C@@H](NC(=O)[C@H](O)[C@@H](O)C(=O)N1CCCCC1c1ccccc1)c1ccc(-n2cccn2)cc1 (mixture of isomers)
Ki [1]: 0.014 µM

CNc1nc([C@H]2CCCN2C(=O)[C@H](O)[C@@H](O)C(=O)N[C@H](C)c2ccc(-n3cccn3)cc2)c(S(C)(=O)=O)s1
IC50 [3]: 0.72 µM

C[C@@H](NC(=O)[C@H](O)[C@@H](O)C(=O)N1CC=C[C@@H]1c1cccc(Cl)c1)c1ccc(-n2cccn2)cc1
Ki [1]: 0.0005 µM
AUC at 6 h [2]: 461 nM·h

CNc1nc([C@H]2c3ccc(F)cc3CN2C(=O)[C@H](O)[C@@H](O)C(=O)N[C@H](C)c2ccc(-n3cccn3)cc2)cs1
Ki [1]: 0.002 µM
IC50 [3]: 0.288 µM

C[C@@H](NC(=O)[C@H](O)[C@@H](O)C(=O)N1CCCCC1c1ccc(Cl)cc1)c1ccc(-n2cccn2)cc1 (mixture of isomers)
Ki [1]: 0.022 µM

C[C@@H](NC(=O)[C@H](O)[C@@H](O)C(=O)N1CCC[C@@H]1c1csc(Nc2cccnc2)n1)c1ccc(-n2cccn2)cc1
Ki [1]: 0.002 µM
IC50 [3]: 5.55 µM

C[C@@H](NC(=O)[C@H](O)[C@@H](O)C(=O)N1CC[C@H](O)C1c1cccc(Cl)c1)c1ccc(-n2cccn2)cc1 (mixture of isomers)
Ki [1]: 0.0067 µM
AUC at 6 h [2]: 4760 nM·h

CCNc1nc([C@H]2c3cnc(N)nc3CN2C(=O)[C@H](O)[C@@H](O)C(=O)N[C@H](C)c2ccc(-n3cccn3)cc2)cs1
Ki [1]: 0.0005 µM
IC50 [3]: 0.257 µM

C[C@@H](NC(=O)[C@H](O)[C@@H](O)C(=O)N1CCC[C@@H]1c1csc(N2CCCCC2)n1)c1ccc(-n2cccn2)cc1
Ki [1]: 0.039 µM
AUC at 6 h [2]: 1960 nM·h

COc1cc2c(cc1OC)[C@H](c1ccc(Cl)cc1)N(C(=O)[C@H](O)[C@@H](O)C(=O)N[C@H](C)c1ccc(-n3cccn3)cc1)CC2
Ki [1]: 0.0026 µM

C[C@@H](NC(=O)[C@H](O)[C@@H](O)C(=O)N1C[C@H](O)CC1c1cccc(Cl)c1)c1ccc(-n2cccn2)cc1 (mixture of isomers)
Ki [1]: 0.0076 µM
AUC at 6 h [2]: 3910 nM·h

C[C@@H](NC(=O)[C@H](O)[C@@H](O)C(=O)N1CCCCC1c1cccc(Cl)c1)c1ccc(-n2cccn2)cc1 (mixture of isomers)
Ki [1]: 0.087 µM

C[C@@H](NC(=O)[C@H](O)[C@@H](O)C(=O)N1CCC[C@]1(C)c1cccc(Cl)c1)c1ccc(-n2cccn2)cc1
Ki [1]: 0.0004 µM
AUC at 6 h [2]: 1460 nM·h

C[C@@H](NC(=O)[C@H](O)[C@@H](O)C(=O)N1CCC[C@@H]1c1cc[nH]n1)c1ccc(-n2cccn2)cc1
Ki [1]: 0.005 µM
AUC at 6 h [2]: 578 nM·h

CNc1nc([C@H]2CCCN2C(=O)[C@H](O)[C@@H](O)C(=O)N[C@H](C)c2ccc(-n3cccn3)cc2)c(-c2ccc(F)cc2)s1
Ki [1]: 0.001 µM
IC50 [3]: 3.24 µM

C[C@@H](NC(=O)[C@H](O)[C@@H](O)C(=O)N1CCC[C@@H]1c1nccs1)c1ccc(-n2cccn2)cc1
Ki [1]: 0.01 µM

COc1cc2c(cc1OC)C(c1ccccc1)N(C(=O)[C@H](O)[C@@H](O)C(=O)N[C@H](C)c1ccc(-n3cccn3)cc1)CC2 (mixture of isomers)
Ki [1]: 0.0009 µM
AUC at 6 h [2]: 1240 nM·h

CNc1nc([C@H]2C[C@@H]3C[C@@H]3N2C(=O)[C@H](O)[C@@H](O)C(=O)N[C@H](C)c2ccc(-n3cccn3)cc2)cs1
Ki [1]: 0.531 µM

C[C@@H](NC(=O)[C@H](O)[C@@H](O)C(=O)N1CCC[C@@H]1c1csc(N(C)C)n1)c1ccc(-n2cccn2)cc1
Ki [1]: 0.065 µM
